According to ChEMBL document CHEMBL5233259, “Medicinal chemistry strategies for the development of protein tyrosine phosphatase SHP2 inhibitors and PROTAC degraders” (Eur J Med Chem, 2020):
Values belong to the compound of their own block, whether it stands above or below them.

Experiments:
[1] = biological target: T1, Tyrosine-protein phosphatase non-receptor type 11 (Homo sapiens, UniProt Q06124); experiment: Inhibition of SHP2 ( 1 to 525 residues) (unknown origin)
T1 sequence (Q06124 whole entry): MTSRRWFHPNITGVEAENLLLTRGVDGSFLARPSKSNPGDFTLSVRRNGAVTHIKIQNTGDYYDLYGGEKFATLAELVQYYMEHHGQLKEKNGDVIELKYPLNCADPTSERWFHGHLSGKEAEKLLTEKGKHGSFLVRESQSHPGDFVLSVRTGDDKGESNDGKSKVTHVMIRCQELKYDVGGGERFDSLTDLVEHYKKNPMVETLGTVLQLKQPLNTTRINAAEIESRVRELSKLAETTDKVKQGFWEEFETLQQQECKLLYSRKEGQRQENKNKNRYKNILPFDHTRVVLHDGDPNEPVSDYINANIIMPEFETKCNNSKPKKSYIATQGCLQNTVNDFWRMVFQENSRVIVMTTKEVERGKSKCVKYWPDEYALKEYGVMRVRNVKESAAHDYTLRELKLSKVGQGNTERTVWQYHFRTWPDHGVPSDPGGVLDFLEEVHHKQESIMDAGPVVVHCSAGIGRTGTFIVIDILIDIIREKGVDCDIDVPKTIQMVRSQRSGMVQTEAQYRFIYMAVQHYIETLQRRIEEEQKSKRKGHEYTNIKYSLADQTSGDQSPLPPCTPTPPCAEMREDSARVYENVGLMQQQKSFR

[2] = biological target: T2, Tyrosine-protein phosphatase non-receptor type 1 (Homo sapiens, UniProt P18031); experiment: Inhibition of PTP1B (unknown origin)
T2 sequence (P18031 whole entry): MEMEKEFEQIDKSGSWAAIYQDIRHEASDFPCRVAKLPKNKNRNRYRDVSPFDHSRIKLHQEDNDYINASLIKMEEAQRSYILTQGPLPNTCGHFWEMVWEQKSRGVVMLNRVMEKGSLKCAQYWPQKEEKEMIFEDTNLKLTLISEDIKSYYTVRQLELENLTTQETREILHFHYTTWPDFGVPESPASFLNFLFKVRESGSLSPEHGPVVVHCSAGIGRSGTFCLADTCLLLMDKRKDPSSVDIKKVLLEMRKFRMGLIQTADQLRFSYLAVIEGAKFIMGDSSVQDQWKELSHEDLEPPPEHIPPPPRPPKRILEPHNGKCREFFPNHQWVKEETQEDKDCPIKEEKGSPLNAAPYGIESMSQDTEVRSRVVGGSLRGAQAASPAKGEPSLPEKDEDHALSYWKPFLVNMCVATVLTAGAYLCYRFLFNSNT

[3] = biological target: T3, Tyrosine-protein phosphatase non-receptor type 6 (Homo sapiens, UniProt P29350); experiment: Inhibition of SHP1 (unknown origin)
T3 sequence (P29350 whole entry, the tested form may be a part): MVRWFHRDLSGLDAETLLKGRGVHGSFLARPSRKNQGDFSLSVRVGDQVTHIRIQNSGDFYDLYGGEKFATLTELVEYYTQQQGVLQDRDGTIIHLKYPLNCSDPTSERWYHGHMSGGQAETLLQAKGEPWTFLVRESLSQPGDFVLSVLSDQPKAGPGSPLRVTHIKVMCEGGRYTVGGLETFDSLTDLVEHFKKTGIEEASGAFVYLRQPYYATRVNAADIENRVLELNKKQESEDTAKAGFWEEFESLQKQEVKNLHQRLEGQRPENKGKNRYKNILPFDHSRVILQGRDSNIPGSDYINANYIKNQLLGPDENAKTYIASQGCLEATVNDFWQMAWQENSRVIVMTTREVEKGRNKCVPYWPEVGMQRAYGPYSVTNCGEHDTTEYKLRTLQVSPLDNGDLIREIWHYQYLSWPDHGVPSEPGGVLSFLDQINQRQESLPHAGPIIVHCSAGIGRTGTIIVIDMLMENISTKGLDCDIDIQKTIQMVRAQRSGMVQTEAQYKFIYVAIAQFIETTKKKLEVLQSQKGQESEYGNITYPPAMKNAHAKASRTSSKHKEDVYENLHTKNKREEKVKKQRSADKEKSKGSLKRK

[4] = biological target: T2, Tyrosine-protein phosphatase non-receptor type 1; experiment: Inhibition of recombinant GST-fused human PTP1B (1 to 435 residues) using DiFMUP as substrate incubated for 30 mins by fluorescence based assay
[5] = biological target: T3, Tyrosine-protein phosphatase non-receptor type 6
Description: Inhibition of recombinant GST-fused human SHP1 (205 to 597 residues) using DiFMUP as substrate incubated for 30 mins by fluorescence based assay

[6] = biological target: T1, Tyrosine-protein phosphatase non-receptor type 11
Description: Inhibition of SHP2 (unknown origin)

Compound: COc1cccc(-c2nnc3n(Cc4ccccc4Cl)c(=O)c4ccccc4n23)c1O
- IC50 [1]: 60 µM

- IC50 [2]: 19 µM
- IC50 [3]: 30 µM
Compound: O=C1/C(=N\Nc2ccc(S(=O)(=O)O)cc2)C(c2ccc([N+](=O)[O-])cc2)=NN1c1ccccc1

Compound: O=S(=O)(O)c1ccc2cc(/N=N/c3cc(S(=O)(=O)O)c4cccnc4c3O)ccc2c1
- IC50 [4]: 1.69 µM
- IC50 [5]: 0.355 µM

- IC50 [6]: 0.8 µM
Compound: O=C1Nc2ccc(S(=O)(=O)O)cc2/C1=N/Nc1ccccc1[N+](=O)[O-]
